How the values were obtained:
Experiment in all cases: relative viability (nuclei count vs DMSO), 5 days (fraction); higher = more cells survive
XMD13-2 + Navitoclax = compound: C1CC1C(=O)NC2=NNC3=C2C=CC(=C3)C4=CC(=CC=C4)C(=O)NC5CC5 [XMD13-2] + CC1(C)CCC(c2ccc(Cl)cc2)=C(CN2CCN(c3ccc(C(=O)NS(=O)(=O)c4ccc(N[C@H](CCN5CCOCC5)CSc5ccccc5)c(S(=O)(=O)C(F)(F)F)c4)cc3)CC2)C1 [Navitoclax] (partner 0.5 µM)
How it was run: (§1)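 The day after seeding in 1536-well plates, lung cancer cell lines were treated by pin tool with a single drug, or with a fixed anchor-drug dose together with five library-drug doses (not always all listed) in √10 steps. After 5 days, a combined fix-and-stain solution (final 0.05% Triton X-100, 1% formaldehyde, 1 ug/ml Hoechst) was added. Nuclei counted on 4× images gave relative viability as treated counts over vehicle counts, reported as the median of duplicate plates.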

XMD13-2 + Alpelisib = compound: C1CC1C(=O)NC2=NNC3=C2C=CC(=C3)C4=CC(=CC=C4)C(=O)NC5CC5 [XMD13-2] + Cc1nc(NC(=O)N2CCC[C@H]2C(N)=O)sc1-c1ccnc(C(C)(C)C(F)(F)F)c1 [Alpelisib] (partner 2 µM)
How it was run: as §1

ALW-II-49-7 + Vorinostat = compound: Cc1ccc(C(=O)Nc2cccc(C(F)(F)F)c2)cc1Nc1cncc(C(N)=O)c1 [ALW-II-49-7] + O=C(CCCCCCC(=O)Nc1ccccc1)NO [Vorinostat] (partner 1 µM)
How it was run: as §1

ALW-II-49-7 + AZD7762 = compound: Cc1ccc(C(=O)Nc2cccc(C(F)(F)F)c2)cc1Nc1cncc(C(N)=O)c1 [ALW-II-49-7] + NC(=O)Nc1cc(-c2cccc(F)c2)sc1C(=O)N[C@H]1CCCNC1 [AZD7762] (partner 0.2 µM)
How it was run: as §1

Row | Cell Line | relative viability (XMD13-2 + Navitoclax; first compound 0.05 µM) | relative viability (XMD13-2 + Navitoclax; first compound 0.1581 µM) | relative viability (XMD13-2 + Navitoclax; first compound 0.5 µM) | relative viability (XMD13-2 + Navitoclax; first compound 1.581 µM) | relative viability (XMD13-2 + Navitoclax; first compound 5 µM) | relative viability (XMD13-2 + Alpelisib; first compound 0.05 µM) | relative viability (XMD13-2 + Alpelisib; first compound 0.1581 µM) | relative viability (XMD13-2 + Alpelisib; first compound 0.5 µM) | relative viability (XMD13-2 + Alpelisib; first compound 1.581 µM) | relative viability (XMD13-2 + Alpelisib; first compound 5 µM) | relative viability (ALW-II-49-7 + Vorinostat; first compound 0.08 µM) | relative viability (ALW-II-49-7 + Vorinostat; first compound 0.253 µM) | relative viability (ALW-II-49-7 + Vorinostat; first compound 0.8 µM) | relative viability (ALW-II-49-7 + Vorinostat; first compound 2.53 µM) | relative viability (ALW-II-49-7 + Vorinostat; first compound 8 µM) | relative viability (ALW-II-49-7 + AZD7762; first compound 0.08 µM) | relative viability (ALW-II-49-7 + AZD7762; first compound 0.253 µM) | relative viability (ALW-II-49-7 + AZD7762; first compound 0.8 µM) | relative viability (ALW-II-49-7 + AZD7762; first compound 2.53 µM) | relative viability (ALW-II-49-7 + AZD7762; first compound 8 µM)
1 | NCI-H1437 | 1.12 | 1.09 | 1.09 | 1.05 | 1.09 | 0.935 | 1.06 | 0.955 | 0.796 | 1.05 | 0.831 | 0.926 | 0.822 | 0.756 | 0.699 | 1.02 | 1.15 | 1.01 | 0.99 | 0.873
2 | NCI-H727 | 0.462 | 0.362 | 0.372 | 0.374 | 0.3 | 0.549 | 0.423 | 0.527 | 0.51 | 0.55 | 1.16 | 1.33 | 1.02 | 1.14 | 1.12 | 0.495 | 0.68 | 0.611 | 0.716 | 0.591
3 | PC-3 [JPC-3] | 0.819 | 0.843 | 0.827 | 0.781 | 0.693 | 1.05 | 0.983 | 1.06 | 1.02 | 0.936 | 0.833 | 0.822 | 0.678 | 0.846 | 0.742 | 0.738 | 0.735 | 0.68 | 0.801 | 0.672
4 | LU99A | 0.927 | 0.741 | 0.811 | 0.805 | 0.523 | 0.553 | 0.491 | 0.561 | 0.446 | 0.335 |  | 0.525 | 0.507 | 0.5 | 0.619 |  | 0.376 | 0.294 | 0.312 | 0.626
5 | H3255 | 0.709 | 0.564 | 0.518 | 0.444 | 0.526 | 0.858 | 0.597 | 0.658 | 0.729 | 0.624 | 0.925 | 0.804 | 0.813 | 0.735 | 0.686 | 0.938 | 1.06 | 0.874 | 0.801 | 0.574
6 | NCI-H1734 | 1 | 0.883 | 0.881 | 0.8 | 0.741 | 0.887 | 0.577 | 0.662 | 0.576 | 0.565 | 0.763 | 0.8 | 0.78 | 0.795 | 0.727 | 0.588 | 0.562 | 0.544 | 0.483 | 0.55
7 | NCI-H1915 | 0.801 | 0.781 | 0.806 | 0.835 | 0.853 | 1.1 | 1.08 | 1.04 | 1.05 | 1.06 | 0.585 | 0.483 | 0.498 | 0.348 | 0.256 | 0.675 | 0.678 | 0.688 | 0.636 | 0.477

Source: the supplement of paper PMC10307832
